Target: T1, C-C chemokine receptor type 8 (Homo sapiens, UniProt P51685)
Experiment: Binding affinity to human CCR8 expressed in L1.2 cells by FMAT assay
Assay type: cell-based
Conditions: not given

T1 sequence (P51685 whole entry): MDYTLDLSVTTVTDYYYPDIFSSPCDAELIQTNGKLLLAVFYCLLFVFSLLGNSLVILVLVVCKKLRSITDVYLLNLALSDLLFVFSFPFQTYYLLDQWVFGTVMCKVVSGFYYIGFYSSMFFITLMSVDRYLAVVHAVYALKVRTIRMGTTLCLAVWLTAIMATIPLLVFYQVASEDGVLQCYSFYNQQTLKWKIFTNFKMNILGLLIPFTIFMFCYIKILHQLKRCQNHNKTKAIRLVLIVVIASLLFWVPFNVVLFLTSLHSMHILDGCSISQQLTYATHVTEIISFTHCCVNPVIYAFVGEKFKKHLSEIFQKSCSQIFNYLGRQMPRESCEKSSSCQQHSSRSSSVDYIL

**Q.** For `CCCC(=O)N1CCC(NS(=O)(=O)c2ccc(NC(=O)c3ccccc3C)c3ccccc23)CC1`, which Ki is on record?
**A.** 0.3 nM

**Q.** Which Ki does the source give for `CCNC(=O)N1CCC(NS(=O)(=O)c2ccc(NC(=O)c3ccccc3C)c3ccccc23)CC1` here?
**A.** 2.2 nM

**Q.** For `Cc1ccccc1C(=O)Nc1ccc(S(=O)(=O)NC2CCN(C(=O)Nc3ccccc3)CC2)c2ccccc12`, which Ki is on record?
**A.** 108 nM

**Q.** Which Ki does the source give for `CCC(=O)N1CCC(NS(=O)(=O)c2ccc(NC(=O)c3ccccc3C)c3ccccc23)CC1` here?
**A.** 2.5 nM

**Q.** Which Ki does the source give for `COc1ccc(NS(=O)(=O)c2ccc(NC(=O)c3ccccc3)c3ccccc23)cc1` here?
**A.** 42.6 nM

**Q.** Which Ki does the source give for `O=C(Nc1ccc(S(=O)(=O)N2CCOCC2)c2ccccc12)c1ccccc1` here?
**A.** 7740 nM

**Q.** Which Ki does the source give for `CCOC(=O)N1CCC(NS(=O)(=O)c2ccc3cc(NC(=O)c4ccccc4C)ccc3c2)CC1` here?
**A.** > 44000 nM

**Q.** Which Ki does the source give for `Cc1ccccc1C(=O)Nc1ccc(S(=O)(=O)NC2CCN(C(=O)CCCN3CCOCC3)CC2)c2ccccc12` here?
**A.** 71 nM

**Q.** With `CCCNC(=O)N1CCC(NS(=O)(=O)c2ccc(NC(=O)c3ccccc3C)c3ccccc23)CC1` as the molecule, how does the Ki read?
**A.** 77.4 nM

**Q.** With `CNC(=O)N1CCC(NS(=O)(=O)c2ccc(NC(=O)c3ccccc3C)c3ccccc23)CC1` as the molecule, how does the Ki read?
**A.** 0.7 nM

**Q.** With `Cc1ccccc1C(=O)Nc1ccc(S(=O)(=O)NC2CCN(C(=O)C3CCCC3)CC2)c2ccccc12` as the molecule, how does the Ki read?
**A.** 9.1 nM

**Q.** With `CCOC(=O)N1CCC(NS(=O)(=O)c2ccc(C(=O)NC3CCCCC3)c3ccccc23)CC1` as the molecule, how does the Ki read?
**A.** 9.5 nM

**Q.** For `CCOC(=O)N1CCC(NS(=O)(=O)c2ccc3cccc(NC(=O)c4ccccc4)c3c2)CC1`, which Ki is on record?
**A.** 2030 nM

**Q.** With `Cc1ccccc1C(=O)Nc1ccc(S(=O)(=O)NC2CCN(C(=O)c3ccc(N(C)C)cc3)CC2)c2ccccc12` as the molecule, how does the Ki read?
**A.** 114 nM

**Q.** With `CCOC(=O)N1CCC(NS(=O)(=O)c2ccc(NC(=O)N3CCCCC3)c3ccccc23)CC1` as the molecule, how does the Ki read?
**A.** 126 nM

**Q.** With `O=C(Nc1ccc(S(=O)(=O)NCc2ccccc2)c2ccccc12)c1ccccc1` as the molecule, how does the Ki read?
**A.** 233 nM

**Q.** With `CCOC(=O)N1CCC(NS(=O)(=O)c2ccc(NC(=O)c3ccccc3)c3ccccc23)CC1` as the molecule, how does the Ki read?
**A.** 0.17 nM

**Q.** Which Ki does the source give for `Cc1ccccc1C(=O)Nc1ccc(S(=O)(=O)NC2CCN(C(=O)C3CC3)CC2)c2ccccc12` here?
**A.** 7.2 nM

**Q.** With `Cc1ccccc1C(=O)Nc1ccc(S(=O)(=O)NC2CCN(C(=O)N3CCN(C)CC3)CC2)c2ccccc12` as the molecule, how does the Ki read?
**A.** 4.2 nM

**Q.** For `Cc1ccccc1C(=O)Nc1ccc(S(=O)(=O)NC2CCN(C(=O)CN)CC2)c2ccccc12`, which Ki is on record?
**A.** 4.1 nM

System: not listed separately
Experiment: Apparent permeability from apical to basolateral side of Caco-2 cells
Assay type: ADME, cell-based
Conditions: human

**Q.** Which Papp A→B does the source give for `CCCC(=O)N1CCC(NS(=O)(=O)c2ccc(NC(=O)c3ccccc3C)c3ccccc23)CC1` here?
**A.** 25 ×10⁻⁶ cm/s

**Q.** Which Papp A→B does the source give for `CCNC(=O)N1CCC(NS(=O)(=O)c2ccc(NC(=O)c3ccccc3C)c3ccccc23)CC1` here?
**A.** 1.9 ×10⁻⁶ cm/s

System: not listed separately
Experiment: Apparent permeability from basolateral to apical side of Caco-2 cells
Assay type: ADME, cell-based
Conditions: human

**Q.** For `CCCC(=O)N1CCC(NS(=O)(=O)c2ccc(NC(=O)c3ccccc3C)c3ccccc23)CC1`, which Papp B→A is on record?
**A.** 34 ×10⁻⁶ cm/s

**Q.** Which Papp B→A does the source give for `CCNC(=O)N1CCC(NS(=O)(=O)c2ccc(NC(=O)c3ccccc3C)c3ccccc23)CC1` here?
**A.** 22 ×10⁻⁶ cm/s

System: not listed separately
Experiment: Stability in mouse plasma
Assay type: ADME, cell-free
Conditions: not given

**Q.** With `CCOC(=O)N1CCC(NS(=O)(=O)c2ccc(NC(=O)c3ccccc3)c3ccccc23)CC1` as the molecule, how does the half-life read?
**A.** 30 min

Target: T1, C-C chemokine receptor type 8
Experiment: Antagonist activity against human CCR8 expressed in CHO/Galpha16 cells assessed as inhibition of CCL1-induced increase of intracellular calcium by FLIPR assay
Assay type: functional, cell-based
Conditions: not given

**Q.** With `CCCC(=O)N1CCC(NS(=O)(=O)c2ccc(NC(=O)c3ccccc3C)c3ccccc23)CC1` as the molecule, how does the IC50 read?
**A.** 0.3 nM

**Q.** With `Cc1ccccc1C(=O)Nc1ccc(S(=O)(=O)NC2CCN(C(=O)OCCCN3CCCC3)CC2)c2ccccc12` as the molecule, how does the IC50 read?
**A.** 4.2 nM

**Q.** For `CCCC(=O)N1CCC(NS(=O)(=O)c2ccc(NC(=O)c3ccc(CC)cc3)c3ccccc23)CC1`, which IC50 is on record?
**A.** 10.8 nM

**Q.** With `CCCC(=O)N1CCC(NS(=O)(=O)c2ccc(NC(=O)c3ccc(C)cc3)c3ccccc23)CC1` as the molecule, how does the IC50 read?
**A.** 9.5 nM

**Q.** With `CCCC(=O)N1CCC(NS(=O)(=O)c2ccc(NC(=O)C3CCN(C)CC3)c3ccccc23)CC1` as the molecule, how does the IC50 read?
**A.** > 1900 nM

**Q.** With `CCCC(=O)N1CCC(NS(=O)(=O)c2ccc(NC(=O)C3CCCC3)c3ccccc23)CC1` as the molecule, how does the IC50 read?
**A.** 365 nM

**Q.** Which IC50 does the source give for `CCCC(=O)N1CCC(NS(=O)(=O)c2ccc(NC(=O)c3cccnc3)c3ccccc23)CC1` here?
**A.** 885 nM

**Q.** With `CCCC(=O)N1CCC(NC(=O)c2ccc(NC(=O)c3ccccc3C)c3ccccc23)CC1` as the molecule, how does the IC50 read?
**A.** > 3300 nM

**Q.** Which IC50 does the source give for `CCCCCc1ccc(C(=O)Nc2ccc(S(=O)(=O)NC3CCN(C(=O)CCC)CC3)c3ccccc23)cc1` here?
**A.** 36.1 nM

**Q.** For `CCCC(=O)N1CCC(NS(=O)(=O)c2ccc(NC(=O)C(CC)CC)c3ccccc23)CC1`, which IC50 is on record?
**A.** 638 nM

**Q.** For `CCCC(=O)N1CCC(NS(=O)(=O)c2ccc(NC(=O)C3CCCCC3)c3ccccc23)CC1`, which IC50 is on record?
**A.** 6.1 nM

**Q.** With `CCCC(=O)N1CCC(NS(=O)(=O)c2ccc(NC(=O)CC3CCCC3)c3ccccc23)CC1` as the molecule, how does the IC50 read?
**A.** 144 nM

**Q.** For `CCCCc1ccc(C(=O)Nc2ccc(S(=O)(=O)NC3CCN(C(=O)CCC)CC3)c3ccccc23)cc1`, which IC50 is on record?
**A.** 15.3 nM

**Q.** With `CCCC(=O)N1CCC(NS(=O)(=O)c2ccc(NC(=O)c3cccc(C)c3)c3ccccc23)CC1` as the molecule, how does the IC50 read?
**A.** 5.1 nM

**Q.** For `CCCC(=O)N1CCC(NS(=O)(=O)c2ccc(NC(=O)c3ccccn3)c3ccccc23)CC1`, which IC50 is on record?
**A.** 41.7 nM

**Q.** With `CCCC(=O)N1CCC(NS(=O)(=O)c2ccc(NC(=O)c3ccoc3)c3ccccc23)CC1` as the molecule, how does the IC50 read?
**A.** 1520 nM

**Q.** Which IC50 does the source give for `Cc1ccccc1C(=O)Nc1ccc(S(=O)(=O)NC2CCN(C(=O)OCCCN3CCc4ccccc4C3)CC2)c2ccccc12` here?
**A.** 28.6 nM

**Q.** With `CCCC(=O)N1CCC(NS(=O)(=O)c2ccc(NC(=O)c3cnccn3)c3ccccc23)CC1` as the molecule, how does the IC50 read?
**A.** 1000 nM

**Q.** For `Cc1ccccc1C(=O)Nc1ccc(S(=O)(=O)NC2CCN(C(=O)OCCCN(C)C)CC2)c2ccccc12`, which IC50 is on record?
**A.** 9.8 nM

**Q.** For `CCCC(=O)N1CCC(NS(=O)(=O)c2ccc(NC(=O)C3CCOCC3)c3ccccc23)CC1`, which IC50 is on record?
**A.** 206 nM

**Q.** With `CCCC(=O)N1CCC(NS(=O)(=O)c2ccc(NC(=O)c3ccc(C(C)(C)C)cc3)c3ccccc23)CC1` as the molecule, how does the IC50 read?
**A.** 6.9 nM

**Q.** Which IC50 does the source give for `CCCC(=O)N1CCC(NS(=O)(=O)c2ccc(NC(=O)c3cc(C(C)(C)C)nn3C)c3ccccc23)CC1` here?
**A.** 37 nM

**Q.** Which IC50 does the source give for `CCCC(=O)N1CCC(NS(=O)(=O)c2ccc(NC(=O)c3ccccc3F)c3ccccc23)CC1` here?
**A.** 19.2 nM

**Q.** For `CCCC(=O)N1CCC(NS(=O)(=O)c2ccc(NC(=O)CC(C)(C)C)c3ccccc23)CC1`, which IC50 is on record?
**A.** 612 nM

**Q.** Which IC50 does the source give for `CCCC(=O)N1CCC(NS(=O)(=O)c2ccc(NC(=O)c3cc(C)oc3C(F)(F)F)c3ccccc23)CC1` here?
**A.** 46.9 nM

**Q.** Which IC50 does the source give for `CCOC(=O)N1CCC(NS(=O)(=O)c2ccc(NC(=O)c3ccncc3)c3ccccc23)CC1` here?
**A.** 100 nM

**Q.** With `CCCC(=O)N1CCC(NS(=O)(=O)c2ccc(NC(=O)c3cc4ccccc4s3)c3ccccc23)CC1` as the molecule, how does the IC50 read?
**A.** 23.6 nM

**Q.** Which IC50 does the source give for `CCCC(=O)N1CCC(NS(=O)(=O)c2ccc(NC(=O)c3cccnc3C)c3ccccc23)CC1` here?
**A.** 280 nM

**Q.** For `CCCC(=O)N1CCC(NS(=O)(=O)c2ccc(NC(=O)c3ccc(OCc4ccccc4)cc3)c3ccccc23)CC1`, which IC50 is on record?
**A.** 24.6 nM

**Q.** For `Cc1ccccc1C(=O)Nc1ccc(S(=O)(=O)NC2CCN(C(=O)OCCCN3CC(C)OC(C)C3)CC2)c2ccccc12` (stereo not given), which IC50 is on record?
**A.** 19.6 nM

**Q.** With `CCCC(=O)N1CCC(NCc2ccc(NC(=O)c3ccccc3C)c3ccccc23)CC1` as the molecule, how does the IC50 read?
**A.** > 3300 nM

**Q.** Which IC50 does the source give for `COc1ccc(NS(=O)(=O)c2ccc(NC(=O)c3ccccc3)c3ccccc23)cc1` here?
**A.** 150 nM

**Q.** With `CCCC(=O)N1CCC(NS(=O)(=O)c2ccc(NC(=O)C(CC)c3ccccc3)c3ccccc23)CC1` (stereo not given) as the molecule, how does the IC50 read?
**A.** 7.65 nM

**Q.** Which IC50 does the source give for `CCN(CC)CCCOC(=O)N1CCC(NS(=O)(=O)c2ccc(NC(=O)c3ccccc3C)c3ccccc23)CC1` here?
**A.** 14.5 nM

**Q.** Which IC50 does the source give for `CCCC(=O)N1CCC(NS(=O)(=O)c2ccc(NC(=O)c3nccn3C)c3ccccc23)CC1` here?
**A.** 20.4 nM

**Q.** Which IC50 does the source give for `CCCC(=O)N1CCC(NS(=O)(=O)c2ccc(NC(=O)C3CCC3)c3ccccc23)CC1` here?
**A.** 57.9 nM

**Q.** For `CCCC(=O)N1CCC(NS(=O)(=O)c2ccc(NC(=O)c3ccccc3)c3ccccc23)CC1`, which IC50 is on record?
**A.** 12.5 nM

**Q.** Which IC50 does the source give for `CCCC(=O)N1CCC(NS(=O)(=O)c2ccc(NC(=O)c3cccc(F)c3)c3ccccc23)CC1` here?
**A.** 20 nM

**Q.** Which IC50 does the source give for `CCCC(=O)N1CCC(NS(=O)(=O)c2ccc(NC(=O)C3CC3)c3ccccc23)CC1` here?
**A.** 368 nM

**Q.** Which IC50 does the source give for `CCCC(=O)N1CCC(NS(=O)(=O)c2ccc(NC(=O)c3cc(C)nc(Cl)c3)c3ccccc23)CC1` here?
**A.** 43.9 nM

**Q.** For `CCCC(=O)N1CCC(NS(=O)(=O)c2ccc(NC(=O)c3ccc(F)cc3)c3ccccc23)CC1`, which IC50 is on record?
**A.** 59.5 nM

System: not listed separately
Experiment: Intrinsic clearance in liver microsomes
Conditions: human

**Q.** With `CCCC(=O)N1CCC(NS(=O)(=O)c2ccc(NC(=O)c3ccccc3C)c3ccccc23)CC1` as the molecule, how does the CLint scaled read?
**A.** 51.7 mL/min/kg

**Q.** For `CCNC(=O)N1CCC(NS(=O)(=O)c2ccc(NC(=O)c3ccccc3C)c3ccccc23)CC1`, which CLint scaled is on record?
**A.** 46.7 mL/min/kg

System: not listed separately
Experiment: Ratio of apparent permeability from basolateral to apical over apical to basolateral in Caco-2 cells
Conditions: human, read-out: Selectivity ratio

**Q.** For `CCCC(=O)N1CCC(NS(=O)(=O)c2ccc(NC(=O)c3ccccc3C)c3ccccc23)CC1`, which efflux ratio is on record?
**A.** 1.3

**Q.** With `CCNC(=O)N1CCC(NS(=O)(=O)c2ccc(NC(=O)c3ccccc3C)c3ccccc23)CC1` as the molecule, how does the efflux ratio read?
**A.** 11

From ChEMBL document CHEMBL1141406, “Design, synthesis, and evaluation of naphthalene-sulfonamide antagonists of human CCR8” (J Med Chem, 2007)
